This note sets out measurements from patent publication US6458781B1, “Substituted diarylalkyl amides as calcium channel antagonists” (priority 1998, dated 2002).

The test system of data set [1] is Na+ channels in SCG neurons. The data set is described as follows: Sodium current in superior cervical ganglion neurons (whole-cell voltage clamp). The data set is classed as cell-based, rat. On the procedure:
Electrophysiological techniques were used to measure the effects of experimental compounds on voltage-gated Ca^2+, […] , and K^+ channels. […] Sodium and potassium channel currents were measured from acutely dissociated SCG neurons.
Dissociation of the neurons from the ganglia was accomplished using a 30 to 45 minute treatment in 0.25% trypsin, similar to methods outlined in Higgins, et al. (see Higgins D. et al. “Tissue culture of mammalian autonomic neurons.” In Banker G. and Goslin K. (Eds), Culturing Nerve Cells, Cambridge, Mass., MIT Press [1991]).
Ca^2+, Na^+, and K^+ channel currents in SCG neurons were measured using conventional single electrode whole-cell voltage-clamp techniques, outlined in Hamill et al., (see Hamill O. P. et al. “Improved patch-clamp techniques for high resolution current recordings from cells and cell-free membrane patches.”Pflugers Arch., 1981;391:85-100). For Ca^2+ channel experiments, the external bathing solution contained tetraethylammonium chloride (100 mM), choline chloride (52 mM), NaCl (15 mM), HEPES (10 mM), glucose (5.6 mM), CaCl2 (2 mM), and MgCl2 (0.8 mM), pH 7.35 with KOH; with the internal pipette solution containing cesium methane sulfonate (140 mM), EGTA (10 mM), and HEPES (10 mM), supplemented with 5 mM Mg^2+-ATP on the day of the experiment, pH 7.4 with CsOH. For Na^+ and K^+ channel experiments, the external bathing solution contained NaCl (150 mM), KCl (5 mM), MgCl2 (1.1 mM), CaCl2 (2.6 mM), Na-HEPES (10 mM), and glucose (10 mM), pH 7.4; with the internal pipette solution containing KCl (80 mM), K-gluconate (50 mM), HEPES (10 mM), and EGTA (10 mM), pH 7.4 with KOH. Experimental compounds were diluted into the external solution and applied to the soma of cells by local perfusion from large diameter (20-50 μm) glass micropipettes or from a U-tube applicator.
For Na^+ and K^+ channel currents, following the determination of the I/V relationship for each cell in control solution, currents were evoked from a holding potential between −65 and −55 mV by stepping every 10 sec to a test potential of either 0 mV for Na^+ or +50 mV for K^+ current for a duration of 35 msec. Peak inward current was measured for Na^+ and sustained current for K^+ channel currents. […] Test compounds were applied until steady-state block was achieved. Data were expressed as percent inhibition of control amplitudes for Na^+ and K^+ channel currents.

The test system of data set [2] is electroshock-induced tonic extensor seizures in CF-1 mice. The data set is described as follows: Maximal electroshock testing. The data set is classed as in vivo. Conditions: protected/tested. On the procedure: Maximal Electroshock Testing
In this test, four representative compounds were tested for their anticonvulsant effects using the procedure described below.
Male CF-1 mice, 20 to 28 g, from Charles River Laboratories, Portage, Mich. were used in all experiments. Groups of 10 mice each were given various intravenous doses of test compound in aqueous solution with 10% Emulphan® Surfactant in a volume of 10 mL/kg of body weight. Electroshock was delivered by corneal electrodes with 60 Hz alternating current (50 mA root-mean-squared for 0.2 seconds) using a constant-current stimulator (Wahlquist Instruments, Salt Lake City, Utah). Untreated or saline-treated mice reliably had tonic extensor seizures with rearward extension of hindlimbs more than 3 seconds. These methods are similar to those published by Krall R. L.; Penry J. K.; White B. G.; and Kupferberg H. K. Antiepileptic Drug Development II. Anticonvulsant Drug Screening, Epilepsia, 1978; 19:409-428.

Where [3] appears, read: 10 mg/Kg iv, 15 min posttreatment.
Setting [4] is: 30 mg/Kg iv, 15 min posttreatment.

Where a name gives a salt, the structure may show the parent alone.

On to `CC(C)C[C@H](NCC1CCCCC1)C(=O)NCCCC(c1ccc(F)cc1)c1ccc(F)cc1` [Example 8, (S)-2-(Cyclohexylmethyl-amino)-4-methyl-pentanoic acid [4,4-bis-(4-fluoro-phenyl)-butyl]-amide monohydrochloride], for which the “SCG Na, % blockage at 10 μM” value in data set [1] was 94% @ 10. Also, the “Number of Mice Protected from Tonic Convulsions” value in data set [2] (setting [3]) was 0/4; in data set [2] (10 mg/Kg iv, 45 min posttreatment), 0/5; in data set [2] (setting [4]), 4/4; in data set [2] (30 mg/Kg iv, 45 min posttreatment), 2/2.

Consider `CC(C)=CCN[C@@H](CC(C)C)C(=O)NCCCC(c1ccc(F)cc1)c1ccc(F)cc1` [Example 9, (S)-4-Methyl-2-(3-methyl-but-2-enylamino)-pentanoic acid [4,4-bis-(4-fluoro-phenyl)-butyl]-amide monohydrochloride], for which the IC50 (in general, the concentration that gives 50% inhibition) in data set [1] worked out at 8.5 µM. Moreover, the “Number of Mice Protected from Tonic Convulsions” value in data set [2] (setting [3]) and in data set [2] (setting [4]) was 10/10 each time.

`CN[C@@H](CC(C)C)C(=O)NCCCC(c1ccc(F)cc1)c1ccc(F)cc1` [Example 12, (S)-4-Methyl-2-methylamino-pentanoic acid [4,4-bis-(4-fluoro-phenyl)-butyl]-amide monohydrochloride]: the “SCG Na, % blockage at 10 μM” value in data set [1] is recorded as 87% @ 10.

Consider `CC(C)C[C@@H](C(=O)NCCCC(c1ccc(F)cc1)c1ccc(F)cc1)N(C)Cc1ccc(C(C)(C)C)cc1.Cl` [Example 14, (S)-2-[(4-tert-Butyl-benzyl)-methyl-amino]-4-methyl-pentanoic acid [4,4-bis-(4-fluoro-phenyl)-butyl]-amide monohydrochloride], for which the melting point (in general, the temperature, or range, at which the solid turns liquid) lay within 87 to 95 °C.

`CC(C)CCN(C)[C@@H](CC(C)C)C(=O)NCCCC(c1ccc(F)cc1)c1ccc(F)cc1` [Example 28, (S)-4-Methyl-2-[methyl-(3-methyl-butyl)-amino]-pentanoic acid [4,4-bis-(4-fluoro-phenyl)-butyl]-amide monohydrochloride]: the “SCG Na, % blockage at 1 μM” value in data set [1] (at 1 μM) is 5% @ 1. Besides, in data set [1], the “SCG Na, % blockage at 10 μM” value is 90% @ 10.

Take `CC(C)[C@H](NC(=O)N1CCCCCC1)C(=O)N1CCN(C(c2ccc(F)cc2)c2ccc(F)cc2)CC1` [Example 33, (S)-Azepane-1-carboxylic acid (1-{4-[bis-(4-fluoro-phenyl)-methyl]-piperazine-1-carbonyl}-2-methyl-propyl)-amide]: in data set [1], the “SCG Na, % blockage at 10 μM” value is listed as 22% @ 10.

Regarding `CC(C)C[C@@H](CN1CCN(C(c2ccc(F)cc2)c2ccc(F)cc2)CC1)NC(=O)N1CCCCCC1` [Example 36, (S)-Azepane-1-carboxylic acid (1-{4-[bis-(4-fluoro-phenyl)-methyl]-piperazin-1-ylmethyl}-3-methyl-butyl)-amide], the “SCG Na, % blockage at 10 μM” value in data set [1] was determined as 81% @ 10.
